According to US20180074053A1 (priority 2016, published 2018):
“Also recorded” adds a separate entry of the source. Read-outs that look alike come from different tables or passages of the source.

Experiments:
[1] = test system: C57BL/6J mice; assay: Oral glucose tolerance test (OGTT); format: in vivo, mouse; details: for significance of blood glucose lowering in OGTT / blood glucose in response to a glucose load (OGTT): Example 5, FIG. 9; for blood glucose in response to a glucose load (OGTT): 1, 0.5 and 0.1 mg/g body weight; for overall effect on blood glucose in OGTT: Example 8, FIG. 13, GABA 200 mg/kg, DT-109 1 mg/g, p<0.01 2-way ANOVA; for overall effect on blood glucose in OGTT vs vehicle: Example 9, FIG. 14, DT-110 1 mg/g, alamandine 10 mg/g, metformin 0.2 mg/g
Procedure: (§1) C57BL/6J mice were received from Jackson Laboratories at 4 weeks old and aged to 7 weeks and then grouped by body weight into 4 groups of 10. The mice were fasted overnight (12 hours) prior to the assay. Body weights and blood glucose (FreeStyle Lite glucometer) levels were determined. […] At 30, 60, 90, and 120 minutes glucose levels were measured using whole blood collected from the tip of the tail via needle puncture. Upon the final 120 min measurement, food was returned to the mice.
Oral glucose tolerance tests (OGTTs) were performed as described in Example 1.
as §1, with “puncture.” for “puncture. Upon the final 120 min measurement, food was returned to the mice.”
as §1, with “puncture.” for “puncture. Upon the final 120 min measurement, food was returned to the mice.”

[2] = target: GPCR109a (Homo sapiens, UniProt Q8TDS4); details: doses of 5 mM and below; FIG. 6A
Procedure: (§2) Cells were grown in DMEM medium containing 10% FBS, 1× non-essential amino acids (Gibco #111450-040), 20 mM HEPES and 250 μg/mL Geneticin® (Gibco #10131-035). Cells were harvested with 0.25% Trypsin/EDTA (Gibco #25200-056), pelleted at 1,200×g for 6 minutes and resuspended in DMEM media described above minus Geneticin®. The cells were seeded at 4×10^4 cells/well/100 μL of a clear bottom/black 96-well plate and grown overnight. The calcium mobilization assays was performed using Screen Quest Fluo-8 Medium Removal Calcium Assay Kit (AAT Bioquest #36308) according to the manufacturer's protocol. Briefly, cells were washed with 100 μL volume of Hank's balanced salt solution, 20 mM HEPES, pH 7.4 and loaded with a buffer containing HBSS, 20 mM HEPES, 1× Pluronic F127 and the Fluo-8 NW dye. The cells were incubated for 30 minutes at 37° C. followed by a 30 minute room temperature incubation. Drug stocks were prepared at 100× concentration and diluted 1:33 in HBSS, 20 mM HEPES, pH 7.4 in a 96-well plate (Corning #3641). Calcium mobilization was measured using the FlexStation 3 (Molecular Devices) at excitation wavelength of 490 nm and emission wavelength of 525 nm. Fluorescence was measured for 180 seconds at 5 second intervals with the addition of compound at a 1:3 dilution after 15 seconds. Peak fluorescence values were calculated using SoftMax Pro 5 (Molecular Devices). The fluorescence values obtained from control wells without cells are subtracted from wells containing treated cells to correct for background. The ratio of fluorescence values of treated cells to vehicle control wells was used to calculate fold activity of the compounds.
(§3) The specificity of the agonist activity was determined by testing in the cell lines that over-express GPCR40 and GPCR 109a.

[3] = target: GPCR40 (Homo sapiens, UniProt O14842); details: doses of 5 mM and below; FIG. 7A
Procedure: as §2, §3

[4] = test system: MrgprD^−/− (KO) mice; details: P<0.05 KO vs. WT
Procedure: (§4) The mice were fasted overnight and their fasting glucose levels were measured. […] Blood glucose levels were measured at 30, 60, 90 and 120 minutes after glucose loading.
as §4

[5] = test system: STC-1 cells; details: has been shown; cited from earlier work
[6] = test system: C57/BL/6J mice and diabetic mouse models; details: previous studies (Zhang 2013; U.S. Pat. No. 8,664,177); cited from earlier work
[7] = test system: diabetic mice; details: has been shown; cited from earlier work
[8] = target: T1, MRGD (Homo sapiens, UniProt Q8TDS7); assay: Calcium mobilization in MRGD over-expressing cells; format: cell-based; parameters: host or cells: ChemiScreen over-expressing cell line, given as 'HEK 293T cells (Chem-1, EMD Millipore)'; details: for activation of calcium mobilization: Example 6, FIG. 10, entire dose range
Procedure: as §2
MRGD cells (EMD Millipore, MA) were treated with either β-alanine, or alamandine at various concentrations (FIG. 10) and calcium mobilization was monitored using a FlexStation 3 Microplate Reader (Molecular Devices) as described in Example 4.

[9] = test system: eNOS; assay: eNOS mRNA expression in HUVEC; format: cell-based, human; details: FIG. 15
From the text: It has been shown that activation of MRGD by alamandine plays an important role in vasodilation by increasing nitric oxide (NO) production. NO produced by the endothelium is an important protective molecule in the vasculature and is mainly generated by the enzyme endothelial NO synthase (eNOS) in blood vessels. Enhancing the expression of eNOS has been considered as possible therapeutic strategy for reducing cardiovascular risk.

[10] = target: T1, MRGD; assay: Calcium mobilization in MRGD cells, antagonist mode; format: cell-based; parameters: host or cells: ChemiScreen over-expressing cell line, given as 'HEK 293T cells (Chem-1, EMD Millipore)'; details: 15 min pre-incubation 30 nM-3 μM, FIG. 11
Procedure: A similar assay was run in the antagonist mode where cells were first incubated with 0, 30 nM, 300 nM or 3 μM alamandine as shown in FIG. 11 (x-axis) for 15 minutes. Then one of 3 different agonists was added to the wells, at their EC90 and the calcium mobilization recorded.

[11] = test system: STC-1 cells; assay: GLP-1 secretion from STC-1 cells (ELISA); format: cell-based, mouse; details: STC-1 cells, co-treatment with DT-110, 2 hours; FIG. 3
Procedure: The pathways and sites of action of H89 and U73122 are graphically represented in FIG. 2.
Supernatants were collected for GLP-1 measurement. and the GLP-1 concentration was measured using a total GLP-1 (7-36 and 9-36) ELISA kit according to manufacturer's instruction (Alpco. Salem, N.H.).

[12] = target: MAS-related G-protein-coupled receptor member D (MRGD) (human, UniProt Q8TDS7 1-321); assay: cell-based or functional assay
Chain of MAS-related G-protein-coupled receptor member D (MRGD) (Q8TDS7 whole entry): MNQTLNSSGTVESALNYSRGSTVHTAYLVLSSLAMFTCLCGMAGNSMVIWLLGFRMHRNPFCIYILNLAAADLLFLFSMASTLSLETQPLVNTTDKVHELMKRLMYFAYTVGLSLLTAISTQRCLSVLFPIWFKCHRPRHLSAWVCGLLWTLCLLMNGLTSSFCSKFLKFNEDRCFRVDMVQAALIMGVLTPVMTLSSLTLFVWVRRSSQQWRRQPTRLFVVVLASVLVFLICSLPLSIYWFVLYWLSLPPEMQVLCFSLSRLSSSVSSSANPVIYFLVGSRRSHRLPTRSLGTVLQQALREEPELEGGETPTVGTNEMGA

T1 sequence (Q8TDS7 whole entry): as above
Chain of GPCR40 (O14842 whole entry): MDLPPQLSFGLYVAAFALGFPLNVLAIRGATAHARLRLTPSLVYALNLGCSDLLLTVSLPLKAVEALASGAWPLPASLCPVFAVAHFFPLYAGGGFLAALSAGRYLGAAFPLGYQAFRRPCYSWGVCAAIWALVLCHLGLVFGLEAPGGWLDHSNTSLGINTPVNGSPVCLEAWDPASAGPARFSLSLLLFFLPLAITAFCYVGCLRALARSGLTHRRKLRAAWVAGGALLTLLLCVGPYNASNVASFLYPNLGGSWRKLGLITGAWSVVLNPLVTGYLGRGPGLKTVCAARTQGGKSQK
Chain of GPCR109a (Q8TDS4 whole entry): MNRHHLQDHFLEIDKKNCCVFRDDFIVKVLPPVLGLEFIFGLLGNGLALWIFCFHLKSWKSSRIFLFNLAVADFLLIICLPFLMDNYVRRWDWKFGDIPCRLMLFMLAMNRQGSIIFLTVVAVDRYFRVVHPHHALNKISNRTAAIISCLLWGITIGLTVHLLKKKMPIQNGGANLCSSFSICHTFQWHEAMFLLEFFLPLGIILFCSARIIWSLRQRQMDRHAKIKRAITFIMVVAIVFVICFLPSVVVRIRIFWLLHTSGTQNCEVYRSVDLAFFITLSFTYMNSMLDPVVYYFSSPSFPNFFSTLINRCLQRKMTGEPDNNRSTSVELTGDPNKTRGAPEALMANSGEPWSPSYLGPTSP

CC(C)C[C@H](NC(=O)CNC(=O)CN)C(=O)O
blood glucose levels during OGTT ([1]; Example 1, FIG. 1A, 2 mg/g glucose plus 1.0, 0.5 or 0.1 mg/g oral gavage, 30-120 min): lowers blood glucose levels in C57BL/6J mice during OGTT in a dose dependent manner | blood glucose area under curve (AUC) in OGTT ([1]; Example 1, FIG. 1B, 1.0, 0.5 or 0.1 mg/g oral, p<0.01 vs control): significantly lowers blood glucose in mice in a dose dependent manner | significance of blood glucose lowering in OGTT ([1]; 0.1 mg/g): significant | significance of blood glucose lowering in OGTT ([1]; 0.5 mg/g): significant | significance of blood glucose lowering in OGTT ([1]; 1 mg/g): significant | blood glucose in response to a glucose load (OGTT) [1]: lower blood glucose in response to a glucose load, in a dose-dependent manner | overall effect on blood glucose in OGTT [1]: overall significant effect in lowering blood glucose | agonist activity (Ca2+ flux) [2]: inactive | agonist activity (Ca2+ flux) [3]: inactive | reduction of blood glucose levels in KO mice compared with WT mice (OGTT) ([4]; 0.25 mg/g with 2 mg/g glucose oral): significantly impaired | reduction of blood glucose levels in KO mice compared with WT mice (OGTT) ([4]; 0.5 mg/g with 2 mg/g glucose oral): significantly impaired | GLP-1 secretion [5]: stimulate GLP-1 secretion | blood glucose [6]: lower blood glucose | GLP-1 level [7]: elevate GLP-1 level | calcium mobilization activity ([8]; at 5 mM, highest dose used, Example 4): active

NCCC(=O)O [β-alanine, reference compound]
significance of blood glucose lowering in OGTT ([1]; 0.1 mg/g): did not | significance of blood glucose lowering in OGTT ([1]; 0.5 mg/g): showed significance | significance of blood glucose lowering in OGTT ([1]; 1 mg/g): showed significance | blood glucose in response to a glucose load (OGTT) [1]: lower blood glucose in response to a glucose load, in a dose-dependent manner | EC50 ([8]; Example 4, FIG. 8, DT-110 lot 2, read-out: EC50): 7.5 µM | activation of calcium mobilization [8]: stimulated calcium mobilization | potency relative to DT-110 or DT-109 ([8]; FIG. 8): more than 10 fold

alamandine
overall effect on blood glucose in OGTT vs vehicle [1]: weak but overall significant effect | eNOS mRNA levels ([9]; 30 minutes, vs control): the same | eNOS expression ([9]; 60 minutes): increased eNOS expression | eNOS expression ([9]; 120 minutes): returned to control levels | activation of calcium mobilization [8]: no activation of calcium mobilization; also recorded: did not | effect on DT-109 signaling ([10]; DT-109 at EC90): did not have any significant effect | effect on DT-110 signaling ([10]; DT-110 at EC90): did not have any significant effect | effect on β-alanine signaling ([10]; β-alanine at EC90, P<0.05): significantly decreased β-alanine signaling

NCCCC(=O)O [GABA, gamma amino butyric acid, reference compound]
overall effect on blood glucose in OGTT [1]: overall significant effect in lowering blood glucose | EC50 ([8]; Example 7, FIG. 12, read-out: half maximal effective concentration (EC50)): ~68 µM

CN(C)C(=N)N=C(N)N [metformin, reference compound]
overall effect on blood glucose in OGTT vs vehicle [1]: significant effect on blood glucose | effect on blood glucose compared with alamandine ([1]; Example 9, P<0.001): significantly better than alamandine

O=S(=O)(NCCNC/C=C/c1ccc(Br)cc1)c1cccc2cnccc12 [H89]
inhibition of DT-110 stimulated GLP-1 secretion [11]: inhibit DT-110 stimulated GLP-1 secretion; also recorded: partially inhibited

COc1ccc2c(c1)CC[C@@H]1[C@@H]2CC[C@]2(C)[C@@H](NCCCCCCN3C(=O)C=CC3=O)CC[C@@H]12 [U73122]
inhibition of DT-110 stimulated GLP-1 secretion [11]: inhibit DT-110 stimulated GLP-1 secretion; also recorded: partially inhibited

GGL [DT-109, three amino acid peptide glycine-glycine-leucine (GGL)]
EC50, calcium mobilization in MRGD over-expressing cells (FIG. 5) [12]: 600 µM | EC50, calcium mobilization in the MRGD cell line (FIG. 8) [12]: 178 µM
